Consider five compounds from patent US20240285528A1, “NANO-MOLECULE AGGREGATE CONSISTING OF ORGANIC MATERIAL, INORGANIC MATERIAL OR SALT THEREOF AND PREPARATION METHOD THEREFOR” (SCAI THERAPEUTICS CO., LTD., priority 2021, published 2024).

Structures are written as SMILES.

A short description of this series: Aqueous solubility (dispersity) by HPLC after stirring and filtration. It is filed as physicochemical. As to conditions: water, stirred at 25° C. for 10 hours, 0.2 micron filter.
Take `Nc1ncnc2c1ncn2[C@@H]1O[C@H](CO)[C@@H](O)[C@H]1O` [Adenosine, adenosine]: the “Aqueous solubility (dispersity)” value is reported as 0.27 % (wt/v). The result for `CC(=O)Oc1cc2c(cc1Cl)C(c1ccccc1C(=O)O)c1cc(Cl)c(OC(C)=O)cc1O2` [DCF-DA, 2′, 7′-dichlorofluorescin diacetate] reads 0.004 % (wt/v); that for `C=C1CCN([C@H](C)[C@](O)(Cn2cncn2)c2ccc(F)cc2F)CC1` [Epinaconazole, epinaconazole], 0.321 % (wt/v). In the case of `O=C(Nc1ccc([N+](=O)[O-])cc1Cl)c1cc(Cl)ccc1O` [Niclosamide, niclosamide], the “Aqueous solubility (dispersity)” value is recorded as 0.0033 % (wt/v). For `C=CC[C@@H]1/C=C(\C)C[C@H](C)C[C@H](OC)[C@H]2O[C@@](O)(C(=O)C(=O)N3CCCC[C@H]3C(=O)O[C@H](/C(C)=C/[C@@H]3CC[C@@H](O)[C@H](OC)C3)[C@H](C)[C@@H](O)CC1=O)[C@H](C)C[C@@H]2OC` [Tacrolimus, tacrolimus] the value was 7.6 % (wt/v).
